According to patent US5843969A, “Protecting agent for organ or tissue” (Teijin Limited, priority 1995, dated 1998):

Tests used:
DNFB-sensitized mice [1] = assay: ear thickness after elicitation of immune reaction in DNFB-sensitized mice; type: in vivo, BALB/c mouse
Method: (§1) Therefore, the presence of such side effects was examined on the active component of the agent of the present invention by using a mouse allergic dermatitis model.
(§2) Hair was removed from the abdomen to the breast of a BALB/c mouse (male, 8 weeks of age) with hair clippers and a shaver. A 0.5% dinitro-fluorobenzene (DNFB) ethanol solution (100 μl head/day) was applied on the hair-removed part one day and two days after the removal of hair to establish sensitization. 2-(3-Cyano-4-isobutyloxyphenyl)-4-methyl-5-thiazolecarboxylic acid, the active component of the present invention, and allopurinol are each suspended in a 0.5% methylcellulose aqueous solution. Each suspension (3, 10, 30 and 100 mg/kg/10 ml/day) was orally administered to an animal at the same time of each DNFB sensitization. […]
(§3) The variations with time of the survival rate and the body weights of the mice administered with the agents were followed up to the 6th day after the final sensitization and recorded. […] The ear thicknesses were measured with a dial thickness gauge (Ozaki Seisakusho, G-1A) before the elicitation, and 24 hr and 48 hr after the elicitation.
(§4) The variations of the body weights and the ear thicknesses were expressed as the mean ± standard deviation for each group. […]

DNFB-sensitized mice [2] = assay: body weight in DNFB-sensitized mice (allergic dermatitis model); type: in vivo, BALB/c mouse; details: survived animals
Method: as §1
Hair was removed from the abdomen to the breast of a BALB/c mouse (male, 8 weeks of age) with hair clippers and a shaver. A 0.5% dinitro-fluorobenzene (DNFB) ethanol solution (100 μl head/day) was applied on the hair-removed part one day and two days after the removal of hair to establish sensitization. 2-(3-Cyano-4-isobutyloxyphenyl)-4-methyl-5-thiazolecarboxylic acid, the active component of the present invention, and allopurinol are each suspended in a 0.5% methylcellulose aqueous solution. Each suspension (3, 10, 30 and 100 mg/kg/10 ml/day) was orally administered to an animal at the same time of each DNFB sensitization. The number of animals is 8 for each of a 3- and a 10-mg/kg/10 ml/day group, and 10 for each of a 30- and a 100-mg/kg/10 ml/day group in each of the active component and the allopurinol. As the control group, 10 ml/kg of 0.5% methylcellulose aqueous solution, the solvent for the active component and allopurinol, was administered to each of 8 sensitized animals.
The variations with time of the survival rate and the body weights of the mice administered with the agents were followed up to the 6th day after the final sensitization and recorded. For survived sensitized animals, a 0.3% DNFB acetone-olive oil (4:1) mixed solution (10 μl on each of the obverse and the reverse side of an ear) was applied on one ear to elicit an immune reaction and an acetone-olive oil (4:1) mixed solution (10 μl on each of the obverse and the reverse side of an ear) was applied on the other ear on the sixth day after the final sensitization. The ear thicknesses were measured with a dial thickness gauge (Ozaki Seisakusho, G-1A) before the elicitation, and 24 hr and 48 hr after the elicitation.
as §4

[3] = test system: ischemia-reperfusion injury model of kidney; assay: renal ischemia-reperfusion injury model in rats, serum BUN level; type: in vivo, SD rat; details: 50 mg/kg oral 60 min prior to 60-min ischemia; 24-hour reperfusion; compared with control group (FIG. 2)
Method: (§5) An ischemia-reperfusion injury model of kidney for studying effect on the ischemia-reperfusion injury was prepared with a rat as shown below, and the effect of the administration of the active component of the agent of the present invention was studied by using the model animal.
(§6) The abdomen of an SD rat (male, 6 weeks of age) was opened under anesthesia with sodium pentobarbital, the separated left and right renal arteries were clamped with arterial clips to block the blood flow completely, and the kidneys were brought into an ischemic state. After 60-minute ischemia, the artery clamps were released, and blood flow was restarted to bring the kidneys to a reperfused state. After the suture of the opened abdomen, the animal was returned to a cage and allowed to have free access to food and water. […]
(§7) Serum was separated from the obtained blood sample by centrifugation. Blood urea nitrogen (BUN) level and serum creatinine (Cre) level, a parameter for kidney function injury, were determined on the serum using an automated analyzer (Hitachi 7070) by an urease-indophenol method and Jaffe method, respectively.
(§8) 2-(3-Cyano-4-isobutyloxyphenyl)-4-methyl-5-thiazolecarboxylic acid, the active component, was suspended in a 0.5% methylcellulose aqueous solution. […] The results were each expressed as the mean ± standard deviation. […]

[4] = test system: ischemia-reperfusion injury model of kidney; assay: renal ischemia-reperfusion injury model in rats, serum creatinine (Cre) level; type: in vivo, SD rat; details: 50 mg/kg oral 60 min prior to 60-min ischemia; 24-hour reperfusion; mean ± standard deviation; control 3.6±0.4, sham 0.4±0.0; p<0.05 vs control
Method: as §5, §6, §7, §8

rats = assay: acute toxicity test, single oral administration in rats; type: in vivo, rat; details: single oral administration up to 300 mg/kg
Method: Further, for the safety evaluation of the agent of the present invention, an acute toxicity test is carried out with rats in terms of 2-(3-cyano-4-isobutyloxyphenyl)-4-methyl-5-thiazolecarboxylic acid as the active component.

DNFB-sensitized mice [5] = assay: survival rate in DNFB-sensitized mice (allergic dermatitis model); type: in vivo, BALB/c mouse; details: 3, 10, 30 and 100 mg/kg/day oral; up to 6th day after final sensitization (FIGS. 4A and 4B)
Method: as §1, §2, §3, §4

RBL-1 cells = assay: leukotriene B4 production in cultured RBL-1 cells (A23187 stimulated, enzyme immunoassay); type: cell-based
Method: RBL-1 cells (Dainippon Pharmaceutical Co.) were cultured in a Dulbecco's Modified Eagle's Medium containing fetal bovine serum in an amount of 10%. The cultured cells were adjusted to 5×10^6 cells/ml. […] After incubated at 37° C. for 5 min, this was immersed into ice and kept for 10 min. Subsequently, 2×10^-5 mol of A23187, Ca-ionophore, was added to the chilled cell suspension to make the final concentration of […], and the cell suspension was incubated again at 37° C. for 15 min. Further, the suspension was held in ice for 10 min. The suspension was subjected to centrifugation at 3000 rpm for 10 min and the cells were removed. Leukotriene B4 (LTB4) level in the supernatant was measured by enzyme immunoassay. […] A significant difference test against the control group was carried out using Bonferroni's test of a multiple comparison.

[6] = clinical application; The Journal of Medicine 1984; The Annals of Pharmacotherapy 1993; cited from earlier work

| SMILES | increase of the ear thickness (DNFB-sensitized mice [1]; 3, 10, 30 and 100 mg/kg/day oral, 24 hr and 48 hr after elicitation (FIG. 6)) | body weight change (DNFB-sensitized mice [2]; 3, 10, 30 and 100 mg/kg/day oral, up to 6th day after final sensitization (FIG. 5A)) | serum BUN level [3] | serum Cre level [4] | death of rats (rats) | survival rate (DNFB-sensitized mice [5]) | LTB4 production (RBL-1 cells; 1×10^-8 mol (final concentration of 10 μM), p<0.001 vs control (FIG. 3)) | increase of the ear thickness and allergy reaction (DNFB-sensitized mice [1]; 30 mg/kg oral, after elicitation, p<0.05 vs control (FIG. 6)) | body weight change (DNFB-sensitized mice [2]; 30 mg/kg oral, p<0.01 vs control (FIG. 5B)) | body weight change (DNFB-sensitized mice [2]; 100 mg/kg oral, p<0.05 vs control (FIG. 5B)) | side effects [6] | LTB4 production (RBL-1 cells; up to 1×10^-8 mol (final concentration of up to 10 μM) (FIG. 3)) |
| --- | --- | --- | --- | --- | --- | --- | --- | --- | --- | --- | --- | --- |
| Cc1nc(-c2ccc(OCC(C)C)c(C#N)c2)sc1C(=O)O [2-(3-cyano-4-isobutyloxyphenyl)-4-methyl-5-thiazolecarboxylic acid] | none of the effect in terms of the increase of the ear thicknesses was observed | did not produce a significant change on the body weights of the animals | exhibited a tendency to suppress the increase of the serum BUN | 2.3 ± 1.1 mg/dL | None of rats died | all animals were survived, excluding one animal of the 100 mg/kg/day group | suppresses the production of LTB4 significantly | – | – | – | – | – |
| Oc1ncnc2[nH]ncc12 [allopurinol, reference compound] | – | – | – | – | – | survival rate decreased dose-dependently with time from a low dose level | – | stimulated the increase of the ear thicknesses, and the allergy reaction significantly | decreased the body weights of the animals significantly | decreased the body weights of the animals significantly | side effects including an allergy reaction during clinical application and occasionally the side effect is so severe that the patient is brought to death | had no effect on the production |
